Consider 42 compounds from ChEMBL document CHEMBL1154258, “Discovery and optimization of potent and selective functional antagonists of the human adenosine A2B receptor” (Bioorg Med Chem Lett, 2009).

Some results are limits rather than exact numbers.

For one data set, the target named is T1, Adenosine receptor A2b (Homo sapiens, UniProt P29275).
T1 sequence (P29275 whole entry): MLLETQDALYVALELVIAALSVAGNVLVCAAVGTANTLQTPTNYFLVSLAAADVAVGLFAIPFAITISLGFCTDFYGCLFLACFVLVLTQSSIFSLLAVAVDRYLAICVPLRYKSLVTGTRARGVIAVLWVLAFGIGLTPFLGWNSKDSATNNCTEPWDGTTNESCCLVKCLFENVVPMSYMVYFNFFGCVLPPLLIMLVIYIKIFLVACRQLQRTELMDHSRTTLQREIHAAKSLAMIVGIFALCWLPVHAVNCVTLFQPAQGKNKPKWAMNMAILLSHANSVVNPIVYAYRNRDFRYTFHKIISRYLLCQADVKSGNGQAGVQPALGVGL
Kind of data set: Antagonist activity at human adenosine A2B receptor expressed in CHOK1 cells assessed as inhibition of calcium mobilization by FLIPR assay. Format: functional, cell-based, CHO-K1. In general terms: Calcium flux is commonly read through the fluorescence of an indicator in the cells.

The target in another data set is Adenosine receptor A2a (Homo sapiens, UniProt P29274). The experiment in a line: Antagonist activity at human adenosine A2A receptor expressed in CHOK1 cells assessed as inhibition of calcium mobilization by FLIPR assay. Format: functional, cell-based, CHO-K1.
Sequence of Adenosine receptor A2a (P29274 whole entry): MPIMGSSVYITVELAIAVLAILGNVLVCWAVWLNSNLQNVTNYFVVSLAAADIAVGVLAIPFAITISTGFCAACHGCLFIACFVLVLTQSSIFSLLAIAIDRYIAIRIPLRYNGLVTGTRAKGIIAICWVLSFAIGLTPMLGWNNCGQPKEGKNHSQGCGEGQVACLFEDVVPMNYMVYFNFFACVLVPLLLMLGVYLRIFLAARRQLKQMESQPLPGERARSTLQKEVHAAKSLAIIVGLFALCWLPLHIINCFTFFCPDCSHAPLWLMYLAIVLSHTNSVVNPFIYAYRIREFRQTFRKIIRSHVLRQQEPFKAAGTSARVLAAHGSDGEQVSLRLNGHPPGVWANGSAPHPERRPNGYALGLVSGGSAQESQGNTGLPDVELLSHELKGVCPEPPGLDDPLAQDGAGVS
A short description of data set [1]: Permeability across human Caco-2 cells. Format: ADME, cell-based. The conditions noted are these: read-out: permeability. (In general: Caco-2 monolayers are a common model of the intestinal barrier.)
In data set [2] the target is Voltage-gated inwardly rectifying potassium channel KCNH2 (Homo sapiens, UniProt Q12809). Kind of data set: Inhibition of human ERG at 30 uM by patch clamp method.
Sequence of Voltage-gated inwardly rectifying potassium channel KCNH2 (Q12809 whole entry): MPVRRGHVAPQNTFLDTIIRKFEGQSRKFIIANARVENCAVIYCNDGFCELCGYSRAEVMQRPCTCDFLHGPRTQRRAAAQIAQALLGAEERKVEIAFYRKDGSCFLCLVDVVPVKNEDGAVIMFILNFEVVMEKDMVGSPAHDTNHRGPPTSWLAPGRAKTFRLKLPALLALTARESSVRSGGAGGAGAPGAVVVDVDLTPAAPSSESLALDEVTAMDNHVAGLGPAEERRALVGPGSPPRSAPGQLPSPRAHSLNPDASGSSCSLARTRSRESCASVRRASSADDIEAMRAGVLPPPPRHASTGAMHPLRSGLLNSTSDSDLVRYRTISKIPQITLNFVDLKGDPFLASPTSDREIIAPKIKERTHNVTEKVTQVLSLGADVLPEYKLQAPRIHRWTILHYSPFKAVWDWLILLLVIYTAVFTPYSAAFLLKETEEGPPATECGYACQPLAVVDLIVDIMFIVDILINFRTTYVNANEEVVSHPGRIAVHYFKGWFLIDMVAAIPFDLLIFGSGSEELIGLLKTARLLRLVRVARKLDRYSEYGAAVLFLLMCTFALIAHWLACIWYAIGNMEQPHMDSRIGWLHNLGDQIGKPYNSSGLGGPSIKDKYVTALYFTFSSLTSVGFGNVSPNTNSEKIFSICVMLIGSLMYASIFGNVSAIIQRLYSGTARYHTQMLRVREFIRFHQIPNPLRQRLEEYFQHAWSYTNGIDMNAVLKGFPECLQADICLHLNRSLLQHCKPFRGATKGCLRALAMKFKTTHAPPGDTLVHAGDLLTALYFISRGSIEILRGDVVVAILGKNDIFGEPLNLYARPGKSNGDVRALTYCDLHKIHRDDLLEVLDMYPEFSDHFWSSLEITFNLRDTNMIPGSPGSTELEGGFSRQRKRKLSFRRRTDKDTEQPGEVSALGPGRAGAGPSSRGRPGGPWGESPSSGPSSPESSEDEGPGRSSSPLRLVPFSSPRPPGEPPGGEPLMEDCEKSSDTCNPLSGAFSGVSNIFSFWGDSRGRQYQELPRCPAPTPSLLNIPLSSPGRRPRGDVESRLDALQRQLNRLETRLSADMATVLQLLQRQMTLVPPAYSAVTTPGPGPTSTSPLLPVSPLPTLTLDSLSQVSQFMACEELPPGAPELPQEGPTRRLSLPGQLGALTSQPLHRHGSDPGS
The nature of data set [3]: Half life in po dosed rat. In kind it is ADME, organism-based. The conditions noted are these: in vivo.
Data set [4] in a line: Oral bioavailability in rat. In kind it is ADME, organism-based. The conditions noted are these: in vivo.
Data set [5] is described as follows: Clearance in po dosed rat. The conditions noted are these: in vivo. Format: ADME, organism-based.
In a further data set the test system is Rattus norvegicus. Kind of data set: Volume of distribution in po dosed rat. Format: ADME, organism-based. As to conditions: in vivo; call rule not given here.
The next data set is filed under the species Homo sapiens. The experiment in a line: Protein binding in human plasma. As to conditions: read-out: PPB (converted).
In the next data set the test system is Plasma. Kind of data set: Clearance in human plasma.

On to `CC(Nc1nc(C(=O)N2CCCC2)c2sccc2n1)c1cccnc1` (racemic), for which the IC50 stood at 0.013 µM on Adenosine receptor A2b and 2.35 µM on Adenosine receptor A2a.

In the case of `O=C(c1ccsc1)c1nc(NCc2cccnc2)nc2ccsc12`, the results for the concentration for half-maximal inhibition (IC50) on Adenosine receptor A2b and on Adenosine receptor A2a were 0.148 µM and 0.405 µM, respectively.

Turning to `CCNc1cc2nc(NCc3cccnc3)nc(C(=O)c3cccs3)c2s1`, the IC50 on Adenosine receptor A2b was 0.019 µM; on Adenosine receptor A2a, 2.49 µM.

In the case of `Cc1ccc(C(=O)c2nc(NC(C)c3cccnc3)nc3ccsc23)s1` (stereo not drawn), the IC50 stood at 0.017 µM at Adenosine receptor A2b and 0.099 µM at Adenosine receptor A2a.

On to `Cc1nc(C(=O)c2ccc(C)s2)c2sccc2n1`, for which the half-inhibitory concentration (IC50) at Adenosine receptor A2b was > 10 µM; at Adenosine receptor A2a, 7.85 µM.

For `Cc1ccc(C(=O)c2nc(N(C)Cc3cccnc3)nc3ccsc23)s1`, the half-inhibitory concentration (IC50) stood at 4.14 µM at Adenosine receptor A2b and 2.27 µM at Adenosine receptor A2a.

As for `C[C@@H](Nc1nc(C(=O)N2CCCC2)c2sccc2n1)c1cccnc1`, the IC50 at Adenosine receptor A2b came to 3.07 µM; on Adenosine receptor A2a, 6.76 µM.

With `O=C(c1cccs1)c1nc(NCc2cccnc2)nc2cc(Cl)sc12`, the half-inhibitory concentration (IC50) stood at 0.016 µM at Adenosine receptor A2b and 0.062 µM at Adenosine receptor A2a.

For `O=C(c1ccc(Cl)s1)c1nc(NCc2cccnc2)nc2ccsc12`, the half-inhibitory concentration (IC50) on Adenosine receptor A2b is 0.487 µM; at Adenosine receptor A2a it was 1.54 µM.

As for `O=C(c1cccs1)c1nc(NCc2cccnc2)nc2ccsc12`, the results for the IC50 at Adenosine receptor A2b and at Adenosine receptor A2a were 0.018 µM and 0.051 µM, respectively.

Regarding `CCNC(=O)c1nc(NCc2cccnc2)nc2ccsc12`, the IC50 is 0.12 µM at Adenosine receptor A2b and 2.52 µM at Adenosine receptor A2a.

As for `Cc1ccc(C(=O)c2nc(NCc3cccnc3)nc3ccsc23)cc1`, the concentration for half-maximal inhibition (IC50) on Adenosine receptor A2b is 0.215 µM; on Adenosine receptor A2a it was 0.442 µM.

Take `Cc1ccc(C(=O)c2nc(NC(C)c3ccccn3)nc3ccsc23)s1` (stereo not drawn): the values for the IC50 on Adenosine receptor A2b and at Adenosine receptor A2a were 0.019 µM and 0.118 µM, respectively.

As to `Cc1ccc(C(=O)c2nc(NCc3ccncn3)nc3ccsc23)s1`, the values for the IC50 on Adenosine receptor A2b and on Adenosine receptor A2a were 0.092 µM and 0.116 µM, respectively.

With `O=C(c1nc(NCc2cccnc2)nc2ccsc12)N1CCCC1`, the IC50 on Adenosine receptor A2b is 0.189 µM; on Adenosine receptor A2a it was 6.14 µM.

`C[C@H](Nc1nc(C(=O)N2CCCC2)c2sccc2n1)c1cccnc1`: the Papp in [1] is 33 ×10⁻⁶ cm/s. The “inhibition (INH)” value in data set [2] is “Not Active”. Besides, the concentration for half-maximal inhibition (IC50) on Adenosine receptor A2b turned out to be 0.018 µM; at Adenosine receptor A2a, 0.468 µM. Besides, the half-life in data set [3] is 2.3 h. In [4], the bioavailability came out at 84%. Besides, the CL/F in [5] was 43.3 mL/min/kg. In the data set with Rattus norvegicus, this compound registered a Vd of 3.9 L/kg. Also, the fraction unbound in the data set listed under Homo sapiens was 0.15.

On to `Nc1cc2nc(NCc3cccnc3)nc(C(=O)c3cccs3)c2s1`, for which the IC50 is 0.032 µM at Adenosine receptor A2b and > 10 µM on Adenosine receptor A2a.

For the compound `Cc1ccc(C(=O)c2nc(NCCc3ccccn3)nc3ccsc23)s1`, the IC50 was determined as 0.944 µM at Adenosine receptor A2b and 0.351 µM at Adenosine receptor A2a.

For `O=C(c1ccncc1)c1nc(NCc2cccnc2)nc2ccsc12`, the IC50 on Adenosine receptor A2b amounted to 0.869 µM; on Adenosine receptor A2a it was 1.94 µM.

In the case of `COc1ccc(C(=O)c2nc(NCc3cccnc3)nc3ccsc23)cc1`, the values for the IC50 at Adenosine receptor A2b and at Adenosine receptor A2a were 1.29 µM and 0.637 µM, respectively.

With `CC(C)NC(=O)c1nc(NCc2cccnc2)nc2ccsc12`, the half-inhibitory concentration (IC50) turned out to be 0.309 µM at Adenosine receptor A2b and 2.61 µM on Adenosine receptor A2a.

Turning to `Cc1ccc(C(=O)c2ncnc3ccsc23)s1`, the IC50 was 5.38 µM at Adenosine receptor A2b and 6.69 µM at Adenosine receptor A2a.

As to `Cc1ccc(C(=O)c2nc(NCc3cccnc3)nc3ccsc23)o1`, the 50% inhibitory concentration (IC50) at Adenosine receptor A2b turned out to be 0.468 µM; at Adenosine receptor A2a it was 1.25 µM.

In the case of `Cc1ccc(C(=O)c2nc(NCc3ccccc3)nc3ccsc23)s1`, the IC50 at Adenosine receptor A2b worked out at 5.58 µM; at Adenosine receptor A2a, 7.15 µM.

In the case of `Cc1ccc(C(=O)c2nc(NC(=O)c3cccnc3)nc3ccsc23)s1`, the IC50 on Adenosine receptor A2b came to 0.287 µM; on Adenosine receptor A2a, 0.161 µM.

Regarding `CCNc1nc(C(=O)c2ccc(C)s2)c2sccc2n1`, the concentration for half-maximal inhibition (IC50) on Adenosine receptor A2b turned out to be 1.26 µM; on Adenosine receptor A2a it was 0.126 µM.

For the compound `Cc1ccc(C(=O)c2nc(NCC3CCCCC3)nc3ccsc23)s1`, the half-maximal inhibitory concentration (IC50) at Adenosine receptor A2b and on Adenosine receptor A2a was > 10 µM throughout.

Turning to `CN(C)c1cc2nc(NCc3cccnc3)nc(C(=O)c3cccs3)c2s1`, the half-maximal inhibitory concentration (IC50) on Adenosine receptor A2b was found to be 0.039 µM; at Adenosine receptor A2a, 1.42 µM.

Take `CCc1nc(C(=O)c2ccc(C)s2)c2sccc2n1`: the IC50 on Adenosine receptor A2b turned out to be 3.67 µM; on Adenosine receptor A2a it was 3.85 µM.

On to `O=C(c1cccnc1)c1nc(NCc2cccnc2)nc2ccsc12`, for which the IC50 was determined as 0.109 µM at Adenosine receptor A2b and 1.17 µM on Adenosine receptor A2a.

Take `Cc1ccc(C(=O)c2nc(NCc3cccnc3)nc3ccsc23)s1`: the IC50 at Adenosine receptor A2b is 0.055 µM; on Adenosine receptor A2a, 0.99 µM.

As to `O=C(NC1CC1)c1nc(NCc2cccnc2)nc2ccsc12`, the IC50 on Adenosine receptor A2b was determined as 0.256 µM; on Adenosine receptor A2a it was 0.71 µM.

`Cc1ccc(C(=O)c2nc(NCCc3cccnc3)nc3ccsc23)s1`: the IC50 on Adenosine receptor A2b was 0.45 µM; on Adenosine receptor A2a it was 0.177 µM.

On to `CNc1cc2nc(NCc3cccnc3)nc(C(=O)c3cccs3)c2s1`, for which the values for the IC50 at Adenosine receptor A2b and on Adenosine receptor A2a were 0.0035 µM and 0.965 µM, respectively. Besides, the half-life in data set [3] is 0.93 h. The bioavailability in data set [4] came out at 2%. Also, in the data set with Rattus norvegicus, the Vd was determined as 2.2 L/kg. Further, the CL in the data set on Plasma was 28.3 mL/min/kg.

For the compound `Cc1ccc(C(=O)c2nc(NCc3ccccn3)nc3ccsc23)s1`, the 50% inhibitory concentration (IC50) came to 0.043 µM at Adenosine receptor A2b and 0.186 µM on Adenosine receptor A2a.

Consider `CNC(=O)c1nc(NCc2cccnc2)nc2ccsc12`, for which the IC50 on Adenosine receptor A2b came out at 0.495 µM.

Regarding `Cc1ccc(C(=O)c2nc(N)nc3ccsc23)s1`, the figures for the IC50 on Adenosine receptor A2b and at Adenosine receptor A2a were 0.758 µM and 0.22 µM, respectively.

Take `O=C(NC1CCCCC1)c1nc(NCc2cccnc2)nc2ccsc12`: the IC50 at Adenosine receptor A2b was found to be 0.571 µM.

For `O=C(c1nccs1)c1nc(NCc2cccnc2)nc2ccsc12`, the concentration for half-maximal inhibition (IC50) on Adenosine receptor A2b was determined as 0.176 µM; on Adenosine receptor A2a, 0.732 µM.

`O=C(c1cncs1)c1nc(NCc2cccnc2)nc2ccsc12`: the values for the IC50 on Adenosine receptor A2b and on Adenosine receptor A2a were 0.148 µM and 1.72 µM, respectively.

Consider `O=C(c1ccccc1)c1nc(NCc2cccnc2)nc2ccsc12`, for which the half-inhibitory concentration (IC50) amounted to 0.511 µM at Adenosine receptor A2b and 1.62 µM on Adenosine receptor A2a.

`Cc1ccc(C(=O)c2nc(NC(C)c3ccccc3)nc3ccsc23)s1` (stereo not drawn): the figures for the IC50 at Adenosine receptor A2b and on Adenosine receptor A2a were 0.414 µM and 1.08 µM, respectively.

The IC50 is the concentration that gives 50% inhibition. Broadly, the half-life is how long it takes for the measured level to halve. Low values mean rapid decline, high ones slow decline. What is called bioavailability is dose-corrected exposure relative to a reference, in per cent. Low readings indicate little systemic uptake, high ones much systemic uptake. For orientation: CL/F means the apparent clearance, not corrected for the fraction that reaches the circulation.
